pIC50: −log10 of the molar value. Blank lines part the entries; values can stand above or below the molecule they belong to.
Key:
Type in all cases: cell-based
JeKo-1 cells = test: Antiproliferative effect, MTS cell viability assay, JeKo-1 cells; details: Homo sapiens; JeKo-1 mantle cell lymphoma cells; read-out: IC50 (anti-proliferation) JeKO-1 cells
Procedure, shortened: (§1)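 Tested at six concentrations (0 to 10 μM in tenfold steps), 72 h; viability by MTS, A490.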

Mino cells = test: Antiproliferative effect, MTS cell viability assay, Mino cells; details: Homo sapiens, MINO, Mino mantle cell lymphoma cells; read-out: IC50 (anti-proliferation) Mino cells
Procedure, shortened: as §1

BTK = BTK (Homo sapiens, UniProt Q06187); test: BTK degradation, DC50 and Dmax of Table 1 (cell line not given); parameters: endogenous in cells; details: for DC50: concentration giving 50% reduction of BTK expression level
Chain of BTK (Q06187 whole entry): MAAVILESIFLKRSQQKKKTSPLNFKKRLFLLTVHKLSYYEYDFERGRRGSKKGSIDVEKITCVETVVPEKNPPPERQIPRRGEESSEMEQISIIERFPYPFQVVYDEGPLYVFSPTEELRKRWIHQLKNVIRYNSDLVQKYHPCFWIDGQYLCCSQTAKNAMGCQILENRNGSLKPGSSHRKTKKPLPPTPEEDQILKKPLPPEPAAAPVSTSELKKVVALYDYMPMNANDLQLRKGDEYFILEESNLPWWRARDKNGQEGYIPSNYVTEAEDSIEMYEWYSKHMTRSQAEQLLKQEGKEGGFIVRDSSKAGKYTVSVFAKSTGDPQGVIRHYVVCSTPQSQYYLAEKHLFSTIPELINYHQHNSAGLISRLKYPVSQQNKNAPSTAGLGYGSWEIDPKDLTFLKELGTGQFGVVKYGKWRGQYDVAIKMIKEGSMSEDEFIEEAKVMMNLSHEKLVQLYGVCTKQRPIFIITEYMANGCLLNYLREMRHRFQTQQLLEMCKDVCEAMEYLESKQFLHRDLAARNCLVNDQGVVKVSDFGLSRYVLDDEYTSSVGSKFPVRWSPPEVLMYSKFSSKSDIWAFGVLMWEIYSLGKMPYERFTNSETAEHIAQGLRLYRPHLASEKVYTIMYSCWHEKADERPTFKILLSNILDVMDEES

SMILES: Nc1ncnc2c1c(-c1ccc(Oc3ccccc3)cc1)nn2[C@@H]1CCCN(C(=O)N2CCC(c3ccc4c(c3)C(=O)N(C3CCC(=O)NC3=O)C4=O)CC2)C1 (stereo partly drawn) [Compound 47, 5-(1-((R)-3-(4-amino-3-(4-phenoxyphenyl)-1H-pyrazolo[3,4-d]pyrimidin-1-yl)piperidine-1-carbonyl)piperidin-4-yl)-2-(2,6-dioxopiperidin-3-yl)isoindoline-1,3-dione]
pIC50 (JeKo-1 cells): < 5.00 | pIC50 (Mino cells): < 5.00 | Dmax (BTK): > 50% | DC50 (BTK): > 50 nM

SMILES: Nc1ncnc2c1c(-c1ccc(Oc3ccccc3)cc1)nn2[C@@H]1CCCN(CC2CCN(CCCC3CCN(c4ccc5c(c4)C(=O)N(C4CCC(=O)NC4=O)C5=O)CC3)CC2)C1 (stereo partly drawn) [Compound 141, 5-(4-(3-(4-(((R)-3-(4-amino-3-(4-phenoxyphenyl)-1H-pyrazolo[3,4-d]pyrimidin-1-yl)piperidin-1-yl)methyl)piperidin-1-yl)propyl)piperidin-1-yl)-2-(2,6-dioxopiperidin-3-yl)isoindoline-1,3-dione]
pIC50 (JeKo-1 cells): 5.00 to 6.00 | pIC50 (Mino cells): 5.00 to 6.00 | Dmax (BTK): > 75% | DC50 (BTK): > 50 nM

SMILES: Nc1ncnc2c1c(-c1ccc(Oc3ccccc3)cc1)nn2[C@@H]1CCCN(CC2CCN(CC3CCN(c4ccc5c(c4)C(=O)N(C4CCC(=O)NC4=O)C5=O)CC3)CC2)C1 (stereo partly drawn) [Compound 129, 5-(4-((4-(((R)-3-(4-amino-3-(4-phenoxyphenyl)-1H-pyrazolo[3,4-d]pyrimidin-1-yl)piperidin-1-yl)methyl)piperidin-1-yl)methyl)piperidin-1-yl)-2-(2,6-dioxopiperidin-3-yl)isoindoline-1,3-dione]
pIC50 (JeKo-1 cells): < 5.00 | pIC50 (Mino cells): < 5.00 | Dmax (BTK): > 75% | DC50 (BTK): 10 to 50 nM

SMILES: Nc1ncnc2c1c(-c1ccc(Oc3ccccc3)cc1)nn2[C@@H]1CCCN(CC2CCN(CCCN3CCC(c4ccc5c(c4)C(=O)N(C4CCC(=O)NC4=O)C5=O)CC3)CC2)C1 (stereo partly drawn) [Compound 139, 5-(1-(3-(4-(((R)-3-(4-amino-3-(4-phenoxyphenyl)-1H-pyrazolo[3,4-d]pyrimidin-1-yl)piperidin-1-yl)methyl)piperidin-1-yl)propyl)piperidin-4-yl)-2-(2,6-dioxopiperidin-3-yl)isoindoline-1,3-dione]
pIC50 (JeKo-1 cells): < 5.00 | pIC50 (Mino cells): < 5.00 | Dmax (BTK): > 75% | DC50 (BTK): 10 to 50 nM

SMILES: Nc1ncnc2c1c(-c1ccc(Oc3ccccc3)cc1)nn2[C@@H]1CCCN(C(=O)N2CCN(c3ccc4c(c3)CN(C3CCC(=O)NC3=O)C4=O)CC2)C1 (stereo partly drawn) [Compound 46, 3-(5-(4-((R)-3-(4-amino-3-(4-phenoxyphenyl)-1H-pyrazolo[3,4-d]pyrimidin-1-yl)piperidine-1-carbonyl)piperazin-1-yl)-1-oxoisoindolin-2-yl)piperidine-2,6-dione]
pIC50 (JeKo-1 cells): < 5.00 | pIC50 (Mino cells): < 5.00 | Dmax (BTK): > 50% | DC50 (BTK): > 50 nM

SMILES: Nc1ncnc2c1c(-c1ccc(Oc3ccccc3)cc1)nn2C1CCN(C(=O)N2CCN(CCCN3CCN(c4ccc5c(c4)C(=O)N(C4CCC(=O)NC4=O)C5=O)CC3)CC2)CC1 (stereo not shown) [Compound 119, 5-(4-(3-(4-(4-(4-amino-3-(4-phenoxyphenyl)-1H-pyrazolo[3,4-d]pyrimidin-1-yl)piperidine-1-carbonyl)piperazin-1-yl)propyl)piperazin-1-yl)-2-(2,6-dioxopiperidin-3-yl)isoindoline-1,3-dione]
pIC50 (JeKo-1 cells): < 5.00 | pIC50 (Mino cells): 5.00 to 6.00 | Dmax (BTK): > 75% | DC50 (BTK): > 50 nM

SMILES: Nc1ncnc2c1c(-c1ccc(Oc3ccccc3)cc1)nn2C1CCN(CCOCCN2CCC(c3ccc4c(c3)C(=O)N(C3CCC(=O)NC3=O)C4=O)CC2)CC1 (stereo not shown) [Compound 11, 5-(1-(2-(2-(4-(4-amino-3-(4-phenoxyphenyl)-1H-pyrazolo[3,4-d]pyrimidin-1-yl)piperidin-1-yl)ethoxy)ethyl)piperidin-4-yl)-2-(2,6-dioxopiperidin-3-yl)isoindoline-1,3-dione]
pIC50 (JeKo-1 cells): 5.00 to 6.00 | pIC50 (Mino cells): 5.00 to 6.00 | Dmax (BTK): > 90% | DC50 (BTK): 10 to 50 nM

SMILES: Nc1ncnc2c1c(-c1ccc(Oc3ccccc3)cc1)nn2C1CCN(CC2CCN(C(=O)N3CCC(CCN4CCN(c5ccc6c(c5)C(=O)N(C5CCC(=O)NC5=O)C6=O)CC4)CC3)CC2)CC1 (stereo not shown) [Compound 43, 5-(4-(2-(1-(4-((4-(4-amino-3-(4-phenoxyphenyl)-1H-pyrazolo[3,4-d]pyrimidin-1-yl)piperidin-1-yl)methyl)piperidine-1-carbonyl)piperidin-4-yl)ethyl)piperazin-1-yl)-2-(2,6-dioxopiperidin-3-yl)isoindoline-1,3-dione]
pIC50 (JeKo-1 cells): 5.00 to 6.00 | pIC50 (Mino cells): 5.00 to 6.00 | Dmax (BTK): > 90%

SMILES: Nc1ncnc2c1c(-c1ccc(Oc3ccccc3)cc1)nn2C1CCN(C(=O)N2CCN(CCN3CCC(c4ccc5c(c4)CN(C4CCC(=O)NC4=O)C5=O)CC3)CC2)CC1 (stereo not shown) [Compound 100, 3-(5-(1-(2-(4-(4-(4-amino-3-(4-phenoxyphenyl)-1H-pyrazolo[3,4-d]pyrimidin-1-yl)piperidine-1-carbonyl)piperazin-1-yl)ethyl)piperidin-4-yl)-1-oxoisoindolin-2-yl)piperidine-2,6-dione]
pIC50 (JeKo-1 cells): 5.00 to 6.00 | pIC50 (Mino cells): 5.00 to 6.00 | Dmax (BTK): > 90% | DC50 (BTK): 10 to 50 nM

More lines, main results first:

Dmax (BTK): > 90% | DC50 (BTK): 10 to 50 nM
SMILES: Nc1ncnc2c1c(-c1ccc(Oc3ccccc3)cc1)nn2[C@@H]1CCCN(CC2CCN(CCN3CCN(c4ccc5c(c4)C(=O)N(C4CCC(=O)NC4=O)C5=O)CC3)CC2)C1 (stereo partly drawn) [Compound 133, 5-(4-(2-(4-(((R)-3-(4-amino-3-(4-phenoxyphenyl)-1H-pyrazolo[3,4-d]pyrimidin-1-yl)piperidin-1-yl)methyl)piperidin-1-yl)ethyl)piperazin-1-yl)-2-(2,6-dioxopiperidin-3-yl)isoindoline-1,3-dione]
pIC50 (JeKo-1 cells): 5.00 to 6.00 | pIC50 (Mino cells): > 6.00

Dmax (BTK): > 90% | DC50 (BTK): < 10 nM
SMILES: Nc1ncnc2c1c(-c1ccc(Oc3ccccc3)cc1)nn2[C@@H]1CCCN(C(=O)N2CCC(CCN3CCN(c4ccc5c(c4)CN(C4CCC(=O)NC4=O)C5=O)CC3)CC2)C1 (stereo partly drawn) [Compound 64, 3-(5-(4-(2-(1-((R)-3-(4-amino-3-(4-phenoxyphenyl)-1H-pyrazolo[3,4-d]pyrimidin-1-yl)piperidine-1-carbonyl)piperidin-4-yl)ethyl)piperazin-1-yl)-1-oxoisoindolin-2-yl)piperidine-2,6-dione]
pIC50 (JeKo-1 cells): 5.00 to 6.00 | pIC50 (Mino cells): > 6.00

Dmax (BTK): > 90% | DC50 (BTK): < 10 nM
SMILES: Nc1ncnc2c1c(-c1ccc(Oc3ccccc3)cc1)nn2[C@@H]1CCCN(C(=O)N2CCN(CCC3CCN(c4ccc5c(c4)C(=O)N(C4CCC(=O)NC4=O)C5=O)CC3)CC2)C1 (stereo partly drawn) [Compound 67, 5-(4-(2-(4-((R)-3-(4-amino-3-(4-phenoxyphenyl)-1H-pyrazolo[3,4-d]pyrimidin-1-yl)piperidine-1-carbonyl)piperazin-1-yl)ethyl)piperidin-1-yl)-2-(2,6-dioxopiperidin-3-yl)isoindoline-1,3-dione]
pIC50 (JeKo-1 cells): 5.00 to 6.00 | pIC50 (Mino cells): 5.00 to 6.00

Dmax (BTK): > 90% | DC50 (BTK): 10 to 50 nM
SMILES: Nc1ncnc2c1c(-c1ccc(Oc3ccccc3)cc1)nn2[C@@H]1CCCN(C2CCN(C(=O)N3CCC(CN4CCC(c5ccc6c(c5)C(=O)N(C5CCC(=O)NC5=O)C6=O)CC4)CC3)CC2)C1 (stereo partly drawn) [Compound 173, 5-(1-((1-((R)-3-(4-amino-3-(4-phenoxyphenyl)-1H-pyrazolo[3,4-d]pyrimidin-1-yl)-[1,4′-bipiperidine]-1′-carbonyl)piperidin-4-yl)methyl)piperidin-4-yl)-2-(2,6-dioxopiperidin-3-yl)isoindoline-1,3-dione]
pIC50 (JeKo-1 cells): > 6.00 | pIC50 (Mino cells): 5.00 to 6.00

Dmax (BTK): > 90% | DC50 (BTK): 10 to 50 nM
SMILES: Nc1ncnc2c1c(-c1ccc(Oc3ccccc3)cc1)nn2[C@@H]1CCCN(C(=O)N2CCC(CN3CCC(c4ccc5c(c4)C(=O)N(C4CCC(=O)NC4=O)C5=O)CC3)CC2)C1 (stereo partly drawn) [Compound 61, 5-(1-((1-((R)-3-(4-amino-3-(4-phenoxyphenyl)-1H-pyrazolo[3,4-d]pyrimidin-1-yl)piperidine-1-carbonyl)piperidin-4-yl)methyl)piperidin-4-yl)-2-(2,6-dioxopiperidin-3-yl)isoindoline-1,3-dione]
pIC50 (JeKo-1 cells): > 6.00 | pIC50 (Mino cells): > 6.00

Dmax (BTK): > 90% | DC50 (BTK): < 10 nM
SMILES: Nc1ncnc2c1c(-c1ccc(Oc3ccccc3)cc1)nn2[C@@H]1CCCN(C(=O)N2CCN(CCN3CCC(c4ccc5c(c4)C(=O)N(C4CCC(=O)NC4=O)C5=O)CC3)CC2)C1 (stereo partly drawn) [Compound 69, 5-(1-(2-(4-((R)-3-(4-amino-3-(4-phenoxyphenyl)-1H-pyrazolo[3,4-d]pyrimidin-1-yl)piperidine-1-carbonyl)piperazin-1-yl)ethyl)piperidin-4-yl)-2-(2,6-dioxopiperidin-3-yl)isoindoline-1,3-dione]
pIC50 (JeKo-1 cells): 5.00 to 6.00 | pIC50 (Mino cells): 5.00 to 6.00

Dmax (BTK): > 90% | DC50 (BTK): < 10 nM
SMILES: Nc1ncnc2c1c(-c1ccc(Oc3ccccc3)cc1)nn2C1CCN(CCOCCOCCC2CCN(c3ccc4c(c3)C(=O)N(C3CCC(=O)NC3=O)C4=O)CC2)CC1 (stereo not shown) [Compound 17, 5-(4-(2-(2-(2-(4-(4-amino-3-(4-phenoxyphenyl)-1H-pyrazolo[3,4-d]pyrimidin-1-yl)piperidin-1-yl)ethoxy)ethoxy)ethyl)piperidin-1-yl)-2-(2,6-dioxopiperidin-3-yl)isoindoline-1,3-dione]
pIC50 (JeKo-1 cells): 5.00 to 6.00 | pIC50 (Mino cells): 5.00 to 6.00

Dmax (BTK): > 90% | DC50 (BTK): < 10 nM
SMILES: Nc1ncnc2c1c(-c1ccc(Oc3ccccc3)cc1)nn2[C@@H]1CCCN(C(=O)N2CCC(CN3CCN(c4ccc5c(c4)CN(C4CCC(=O)NC4=O)C5=O)CC3)CC2)C1 (stereo partly drawn) [Compound 56, 3-(5-(4-((1-((R)-3-(4-amino-3-(4-phenoxyphenyl)-1H-pyrazolo[3,4-d]pyrimidin-1-yl)piperidine-1-carbonyl)piperidin-4-yl)methyl)piperazin-1-yl)-1-oxoisoindolin-2-yl)piperidine-2,6-dione]
pIC50 (JeKo-1 cells): > 6.00 | pIC50 (Mino cells): > 6.00
